From patent US20080319031A1, “Novel Tyrosine Derivatives” (Orchid Chemicals & Pharmaceuticals Limited, priority 2005, published 2008)

Assays:
HCT-116 = experiment: Colon cancer cell growth (MTS viability); format: cell-based, human; conditions: 30 μM, 48 hrs
Experimental: FIG. 10. […] HCT-116 is a human colon cancer cell line and they were grown in 96 well plates with seeding concentration of […] cells/mL.

TNF-α [1] = experiment: TNF-α inhibition in LPS-challenged human PBMC (ELISA); format: cell-based; conditions: hPBMC 1×10^6/mL, LPS 100 ng/mL for 20 hours, different concentrations
Experimental: (§1) FIG. 1. TNF-α, IL-6 and IL-1β inhibition in human peripheral blood monocytic cells (hPBMC).
(§2) Human PBMC cells were cultured and incubated with compound 1 in example 1 at different concentrations. Cells (1×10^6/mL) were challenged with lipopolysaccharides (LPS) at a concentration of (100 ng/mL) for 20 hours. Cell supernatant was analyzed for the presence of TNF-α, IL-1β and IL-6 cytokines by antibody directed enzyme-linked immunoassay.

IL-1β = IL-1β inhibition in LPS-challenged human PBMC (ELISA); format: cell-based; conditions: hPBMC 1×10^6/mL, LPS 100 ng/mL for 20 hours, different concentrations
Experimental: as §1, §2

IL-6 = IL-6 inhibition in LPS-challenged human PBMC (ELISA); format: cell-based; conditions: hPBMC 1×10^6/mL, LPS 100 ng/mL for 20 hours, different concentrations
Experimental: as §1, §2

[2] = tested on: human peripheral blood mononuclear cells; experiment: Cell viability of human PBMC incubated with compound; format: cell-based; conditions: hPBMC, highest concentration of the compound
COX-2 = molecular target: T1, COX-2 (Homo sapiens, UniProt P35354); experiment: COX-2 inhibition: LPS induced PGE-2 in human PBMC (ELISA); format: cell-based
T1 construct: LPS, also induces cycloxygenase-2 (COX-2) enzyme in this system; endogenous in cells; host or cells: human peripheral blood mononuclear cells from volunteers, LPS-stimulated
T1 sequence (P35354 18-604): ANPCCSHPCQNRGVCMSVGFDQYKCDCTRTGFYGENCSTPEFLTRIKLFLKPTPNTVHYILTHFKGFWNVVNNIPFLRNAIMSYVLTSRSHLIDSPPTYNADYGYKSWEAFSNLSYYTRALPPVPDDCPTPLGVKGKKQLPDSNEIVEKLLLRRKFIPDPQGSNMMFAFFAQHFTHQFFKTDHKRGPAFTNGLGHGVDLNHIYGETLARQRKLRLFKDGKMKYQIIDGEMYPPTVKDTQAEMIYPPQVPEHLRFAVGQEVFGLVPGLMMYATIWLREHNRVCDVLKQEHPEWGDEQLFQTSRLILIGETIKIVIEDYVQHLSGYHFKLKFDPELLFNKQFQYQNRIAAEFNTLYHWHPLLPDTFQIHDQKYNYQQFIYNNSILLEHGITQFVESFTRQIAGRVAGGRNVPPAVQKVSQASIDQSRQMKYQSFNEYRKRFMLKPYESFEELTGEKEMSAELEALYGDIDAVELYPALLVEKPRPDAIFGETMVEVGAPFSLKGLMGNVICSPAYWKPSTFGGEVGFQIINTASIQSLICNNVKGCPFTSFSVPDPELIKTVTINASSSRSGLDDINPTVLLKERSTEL
Experimental: (§3) The inflammatory stimulus, LPS, also induces cycloxygenase-2 (COX-2) enzyme in this system and as a result prostaglandin E 2 (PGE-2) is produced. Human PBMC cells were cultured and incubated with compound in example 1 at different concentrations. Cells (1×10^6/mL) were challenged with lipopolysaccharides (LPS) at a concentration of (100 ng/mL) for 20 hours. Inhibition of COX-2 was determined by the measurement of PGE-2 levels in the supernatant by ELISA (Cayman Chemicals). For the determination of PGE-2 levels, supernatants were incubated in the ELISA plate and detected by calorimetric reaction. […] The endogenous form, COX-1 is only activated when there is a physiological stimulus and goes through the same pathway for the production of PGE-2 levels. Human monocytic U-937 (2.5×10^5/mL) cells were charged with arachidonic acid to activate the COX-1 pathway. It produced PGE-2 following these kind of physiological induction. To assay the COX-1 activity, cells were preincubated with the compound for 15 min (indomethacin was kept as positive control) and then they were challenged with 10 μM arachidonic acid for next 20 min. Supernatants were harvested and measured for PGE-2 as marker of COX-1 activity.

COX-1 = molecular target: T2, COX-1 (Homo sapiens, UniProt P23219); experiment: COX-1 activity: arachidonic acid induced PGE-2 in U-937 cells; format: cell-based; conditions: 10 μM compound, 10 μM arachidonic acid 20 min
T2 construct: endogenous in cells; host or cells: U-937 human monocytic cells
T2 sequence (P23219 24-599): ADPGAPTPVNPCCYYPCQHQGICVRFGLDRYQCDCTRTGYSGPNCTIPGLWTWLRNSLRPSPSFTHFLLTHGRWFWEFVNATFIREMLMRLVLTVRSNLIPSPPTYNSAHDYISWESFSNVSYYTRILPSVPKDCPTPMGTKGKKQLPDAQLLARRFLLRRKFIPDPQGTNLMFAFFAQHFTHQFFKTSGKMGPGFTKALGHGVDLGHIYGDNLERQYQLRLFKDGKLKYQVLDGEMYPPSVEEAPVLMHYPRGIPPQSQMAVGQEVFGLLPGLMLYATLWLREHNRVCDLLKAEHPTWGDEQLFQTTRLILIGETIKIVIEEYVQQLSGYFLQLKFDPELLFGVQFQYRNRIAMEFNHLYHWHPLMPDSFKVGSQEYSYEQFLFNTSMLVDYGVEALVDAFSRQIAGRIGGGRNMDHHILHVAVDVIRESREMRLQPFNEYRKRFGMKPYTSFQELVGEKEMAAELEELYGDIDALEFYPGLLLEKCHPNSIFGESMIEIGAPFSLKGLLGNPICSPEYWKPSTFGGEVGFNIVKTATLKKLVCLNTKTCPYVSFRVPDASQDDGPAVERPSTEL
Experimental: as §3

TNF-α [3] = experiment: LPS induced TNF-α production in vivo; parameters: species or system Swiss Webster (SW) mice; conditions: one hour before LPS 10 μg/mouse ip, blood after 90 min
Experimental: FIG. 3. Compound 1 Inhibits LPS Induced TNF-α Production In Vivo.
Swiss Webster (SW) mice were orally treated with vehicle, dexamethasone (5 mg/kg bw) and compound 1 in example 1 (50 mg/kg bw) one hour before LPS injection (10 μg/mouse, ip) and blood was collected after 90 min and measured TNF-α levels by ELISA as described in FIG. 1.

SJL/J mice = experiment: Experimental allergic encephalomyelitis (EAE) model of multiple sclerosis; format: in vivo; conditions: EAE induced by spinal chord homogenate in SJL/J mice
Experimental: Multiple Sclerosis (MS) is an autoimmune disease and is regulated by cytokine levels. In order to test the effect of compound 1 in example 1 in MS model, experimental allergic encepahalomyalitis (EAE) was induced in SJL/J mice. EAE is an autoimmune inflammatory disease of the central nervous system (CNS). […] EAE was induced by injecting spinal chord homogenate and the animals were treated with example compounds. The severity of EAE was established by clinical scores of paralysis.

MCF-7 = experiment: Breast cancer cell growth (MTS viability); format: cell-based; conditions: for inhibition of breast cancer cell growth: MCF-7, six consecutive days, MTS every 48 hrs
Experimental: MCF-7 is a breast cancer cells and they were grown in 96 well plates at 1000 cells/well. The cells were pretreated with either compound 11 in example 11 and 8 in example 8 or DMSO for six consecutive days. Every 48 hrs they were stained with MTS dye and viability was checked accordingly.

DU-145 = experiment: Prostate cancer cell growth (MTS viability); format: cell-based; conditions: DU-145, six consecutive days, MTS every 48 hrs
Experimental: DU-145 is a prostate cancer cell and they were grown in 96 well plates at 1000 cells/well. The cells were pretreated with either compound 11 in example 11 and 8 in example 8 or DMSO for six consecutive days. Every 48 hrs they were stained with MTS dye and viability was checked accordingly.

[4] = tested on: db/db (spontaneous model) diabetic mice; experiment: Blood glucose and body weight in db/db obese diabetic mice; format: in vivo; conditions: 50 mg/kg body weight oral in water
Experimental: FIG. 5. […] Seven weeks old male db/db (spontaneous model) diabetic mice were orally treated with compound 20 in example 20 at a dose of 50 mg/kg body weight in water and blood glucose was monitored by Accuchek glucometer.

[5] = tested on: C57BL/6J male ob/ob diabetic mice; experiment: Blood glucose in ob/ob mice; format: in vivo; conditions: 50 mg/kg body weight oral in water, within six days of treatment
Experimental: FIG. 6. Lowering of Blood Glucose in ob/ob Mice by Compound 20 in Example 20. Seven weeks old C57BL/6J male ob/ob (obese, insulin resistant spontaneous model of type-II diabetes) diabetic mice were orally treated with compound 20 in example 20, at a dose of 50 mg/kg body weight dissolved in water and blood glucose (FIG. 6) was monitored by Accuchek glucometer.

Diet induced obese mice [6] = experiment: Body weight in diet induced obesity mouse model; format: in vivo, C57BL/6J male mouse; conditions: 60% Kcal high fat diet, 50 mg/kg body weight, compared to vehicle
Experimental: FIG. 7. Effect of Compound 20 in Example 20 on Diet Induced Obesity Mouse Models. C57BL/6J male mouse were fed with 60% Kcal high fat diet (D12492, Research Diet) ad libitum 15 days prior to the beginning of the treatment. Diet induced obese mice were treated with a dose of 50 mg/kg body weight compound 20 in example 20 and their bodyweight was monitored on every third day.

Diet induced obese mice [7] = experiment: OGTT and serum insulin in diet induced obesity model; format: in vivo, C57BL/6J male mouse; conditions: day 60 of high fat feeding
Experimental: C57BL/6J male mouse were fed with 60% Kcal high fat diet (D12492, Research Diet) ad libitum 15 days prior to the beginning of the treatment. Diet induced obese mice were treated with a dose of 50 mg/kg body weight compound 20 in example 20 and their bodyweight was monitored on every third day. […] FIG. 8. Oral Glucose Tolerance Test (OGTT) in Diet Induced Obesity Model for Compound 20 in Example 20. […] To see the effect of compound 20 in example 20, on day 60 an OGTT study was carried to observe the improvement of glucose tolerance upon the treatment of compound 20 in example 20.

3T3-L1 fibroblasts = experiment: Adipogenesis in 3T3-L1 fibroblasts (Oil-red-O staining); format: cell-based
Experimental: FIG. 9. Compound 20 in Example 20 is Not Adipogenic.
All known PPARγ agonists induce differentiation in fibroblast cells. The adipogenic potential of these compounds are correlated with their affinity to this receptor. To check quickly the affinity of compound 20 in example 20 to this receptors, 3T3-L1 fibroblasts were treated with either DMSO control or rosiglitazone as positive control or these two compounds for several days at different concentrations. On day 13th, the differentiated adipocytes were stained with Oil-red-O (Sigma) and washed thoroughly to remove unbound stain and visualized under Olympus microscope.

Cl.NC(=O)[C@@H](N)Cc1ccc(Oc2ccc(/C=C3/C(=O)Nc4ccccc43)cc2)cc1 [Compound 21, 2-amino-3-{4-[4-(2-oxo-1,2-dihydroindol-3-ylidenemethyl)-phenoxy]-phenyl}-propionamide hydrochloric acid]
inhibition of colon cancer cell growth (HCT-116): completely inhibited colon cancer cell growth

COC(=O)C(N)Cc1ccc(Oc2ccc(C=C3C(=O)Nc4ccccc43)cc2)cc1.Cl (stereo not drawn) [Compound 1, Methyl-2-amino-3-(4-{4-[(2-oxo-1,2-dihydro-3H-indol-3-ylidene)methyl]phenoxy}phenyl) propanoate hydrochloride]
inhibition of TNF-α production (TNF-α [1]): inhibit the production of three major pro-inflammatory cytokines in a dose dependent manner | inhibition of IL-1β production (IL-1β): inhibit the production of three major pro-inflammatory cytokines in a dose dependent manner | inhibition of IL-6 production (IL-6): inhibit the production of three major pro-inflammatory cytokines in a dose dependent manner | change in cell viability [2]: No significant change in cell viability | inhibition of LPS induced PGE-2 production (COX-2; 10 μM compound, hPBMC): completely inhibited LPS induced PGE-2 production | selectivity on COX-2 over COX-1 activity (COX-2; LPS induced vs arachidonic acid induced PGE-2): Selectively Inhibits COX-2 Than COX-1 Enzyme | inhibition of LPS induced COX-2 activity (PGE-2 levels) (COX-2; hPBMC, LPS 100 ng/mL for 20 hours, different concentrations): dose dependently inhibited LPS induced COX-2 activity | effect on arachidonic acid induced PGE-2 levels (COX-1 activity) (COX-1): no effect on arachidonic acid induced PGE-2 levels | reduction of TNF levels compared to control group (TNF-α [3]; 50 mg/kg bw oral): 25% | severity of EAE (clinical scores of paralysis) (SJL/J mice): complete prevention of EAE

COC(=O)C(N)Cc1ccc(Oc2ccc(C=C3C(=O)Nc4ccccc43)c(C(F)(F)F)c2)cc1.Cl (stereo not drawn) [Compound 8, Methyl-2-amino-3-(4-{3-trifluoromethyl-4-[(2-oxo-1,2-dihydro-3H-indol-3-ylidene)methyl]phenoxy}phenyl) propanoate hydrochloride]
dose dependence of breast cancer cell growth inhibition (MCF-7; MCF-7, doses from 1-50 μM): worked equally well | inhibition of breast cancer cell growth (MCF-7): very strong in inhibiting the breast cancer cell growth | inhibition of prostate cancer cell growth (DU-145): selectively kills breast cancer cells

CN(C)C(=O)[C@@H](N)Cc1ccc(Oc2ccc(/C=C3/C(=O)Nc4ccccc43)cc2)cc1.Cl [Compound 20, 2-amino-N,N-dimethyl-3-{4-[4-(2-oxo-1,2-dihydroindol-3-ylidenemethyl)-phenoxy]-phenyl}-propionamide hydrochloric acid]
blood glucose [4]: Reduces Blood Glucose | body weight ([4]; compared to vehicle): lowering of body weight compared to vehicle | blood glucose [5]: strong glucose lowering activity | body weight gain (Diet induced obese mice [6]): less body weight gain compared to vehicle treated animals | decrease of serum insulin level (Diet induced obese mice [7]): 70% | adipogenesis (differentiation of fibroblasts) (3T3-L1 fibroblasts; 3T3-L1, different concentrations, stained on day 13): remained unchanged | affinity to PPARγ receptor (indirect proof from adipogenesis) (3T3-L1 fibroblasts; inferred from 3T3-L1 adipogenesis): no affinity to PPARγ receptor

C[C@@H]1C[C@H]2[C@@H]3CCC4=CC(=O)C=C[C@]4(C)[C@@]3(F)[C@@H](O)C[C@]2(C)[C@@]1(O)C(=O)CO [dexamethasone, reference compound]
inhibition of TNF levels (TNF-α [3]; 5 mg/kg body weight oral): 95%

COC(=O)C(N)Cc1ccc(Oc2ccc(CC3C(=O)Nc4ccccc43)cc2C(F)(F)F)cc1.Cl (stereo not drawn) [Compound 11, Methyl-2-amino-3-(4-{2-trifluoromethyl-4-[(2-oxo-2,3-dihydro-1H-indol-3-yl)methyl]phenoxy}phenyl) propanoate hydrochloride]
inhibition of breast cancer cell growth (MCF-7): Inhibits Breast Cancer Cell Growth | inhibition of prostate cancer cell growth (DU-145): very similar in both breast and prostate cancer cells
